Reference: US8012952B2, “Cationic 17 α-substituted-estradiol derivatives useful as anti-cancer agent” (Council of Scientific & Industrial Research, priority 2007, dated 2011)

Assays:
MCF-7 cells = assay: MTT cell viability assay, MCF-7 cells; conditions: Homo sapiens, MCF7, read-out: in-vitro percent cell viability
Procedure: (§1) The in vitro cytotoxicities of the derivative A to various cancer and non-cancer cells across different molar concentrations (0.5 μM-50 μM) were performed. The cancer cells were chosen from various origins, such as breast cancer cells MCF-7 (primary carcinoma), T47D (ductal carcinoma), MDA-MB-468 (secondary, metastatic); cervical cancer cell Hela; lung cancer cell A549 (metastatic). […] In one set of experiments, the cells were treated at different concentrations of derivative A for 4 h, washed and kept in serum media for 6 days to observe cellular toxicity using MTT assay (FIGS. 1, 2, 4, 6A and 6B), except for one cell line where the assay was done after 4 days (FIG. 3). In another set of experiment, the cells were treated continuously for 48 h in presence of serum media and cellular toxicities were assayed promptly (FIG. 5).
(§2) Cells and Cell Culture. CHO (Chinese hamster ovary), COS-1 (African Green monkey kidney cells) HeLa (Human cervical carcinoma), MCF-7 (Human breast primary adenocarcinoma), T47D (Human breast ductal carcinoma), MDA-MB-468 (Human breast secondary adenocarcinoma), and A-549 (Human lung carcinoma) cell lines were procured from the National Centre for Cell Sciences (NCCS), Pune, India and were mycoplasma free. […] The cells were trypsinized, counted, subcultured in 96-well plates for viability studies. […]

Hela cells = assay: MTT cell viability assay, Hela cells; conditions: Homo sapiens, read-out: in-vitro percent cell viability
Procedure: as §1, §2

T47D cells = assay: MTT cell viability assay, T47D cells; conditions: Homo sapiens, read-out: in-vitro percent cell viability
Procedure: as §1, §2

MDA-MB-468 cells = assay: MTT cell viability assay, MDA-MB-468 cells; conditions: Homo sapiens, MDA-MB-468, read-out: in-vitro percent cell viability
Procedure: as §1, §2

Measured: viability at 50 µM

CCCCCCCC[N+](C)(CCCCCCCC)CCC[C@]1(O)CCC2C3CCc4cc(O)ccc4C3CC[C@@]21C (stereo partly drawn) [Derivative 1, 17α-[3-N,N-dioctyl(methyl)aminopropane]-17β-Estradiol]
2 to 10%: all assays above
